Data on twelve compounds can be found in patent US8119675B2, “Benzimidazole derivatives” (Merck Patent GmbH, priority 2007, dated 2012).

The term IC50 denotes the midpoint of a concentration-inhibition curve. Low readings indicate greater potency, high ones weaker potency. Usually melting point stands for the temperature, or range, at which the solid turns liquid.

One series deals with T1, SGLT2 (Homo sapiens, UniProt P31639).
T1 construct: expressed in transfected cells
T1 sequence (P31639 1-672): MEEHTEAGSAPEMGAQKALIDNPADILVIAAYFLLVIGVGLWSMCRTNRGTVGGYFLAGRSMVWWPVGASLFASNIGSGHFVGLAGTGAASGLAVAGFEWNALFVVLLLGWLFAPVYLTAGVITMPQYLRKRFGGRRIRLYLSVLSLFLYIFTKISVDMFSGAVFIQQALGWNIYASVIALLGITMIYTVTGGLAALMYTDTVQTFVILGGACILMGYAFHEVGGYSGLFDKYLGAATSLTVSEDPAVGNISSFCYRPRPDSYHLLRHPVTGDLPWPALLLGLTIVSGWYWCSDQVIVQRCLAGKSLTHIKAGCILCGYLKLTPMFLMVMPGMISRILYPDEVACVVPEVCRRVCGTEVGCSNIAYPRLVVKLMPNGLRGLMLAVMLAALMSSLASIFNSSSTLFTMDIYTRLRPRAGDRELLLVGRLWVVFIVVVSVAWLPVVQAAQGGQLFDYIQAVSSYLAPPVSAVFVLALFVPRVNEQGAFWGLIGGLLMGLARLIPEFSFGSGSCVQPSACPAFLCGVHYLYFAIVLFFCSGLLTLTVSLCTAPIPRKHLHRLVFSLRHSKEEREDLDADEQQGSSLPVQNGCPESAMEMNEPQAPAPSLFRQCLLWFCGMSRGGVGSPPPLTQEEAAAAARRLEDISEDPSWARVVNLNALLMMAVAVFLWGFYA
The series is described as follows: 14C-AMG uptake in BHK cells transfected with SGLT2 (96-well cell-based assay). To be noted: 2 mM AMG, 37° C., 90 min. From the text:
(§1) The compounds can be tested for their SGLT inhibition properties by means of BHK cells expressing SGLT1 and SGLT2. The production of the cells and the testing can be carried out as described below.
To construct the SGLT2 expression vector (KL224), the SLC5A2 gene (homologous to NM_003041) was amplified from a cDNA library using standard PCR technology and cloned over NheI/XhoI sites into PCI-neo expression vector (Promega) containing neomycin as a selection marker. In this vector, transcription uses the enhancer/promoter of human cytomegalovirus and the SV40 polyadenylation signal.
(§2) The final vector KL224 together with an additional vector containing a dihydrofolate reductase gene as a selection marker was introduced into cells. Transfection into BHK21 cells (ATCC CCL-10), cultivated in DMEM medium (GIBCO/BRL), supplemented with 10% foetal calf serum (FCS) and 20 mM glutamine, was carried out using calcium phosphate transfections according to Graham, F. L. and van der Ebb, A. J. (1973), Virology 52: 456 with 5-20 μg of uncut plasmids for 10^7 cells. Stable transfectants were selected in medium containing 1 mg/ml of G418 (GIBCO/BRL) and 20-5000 nM methotrexate as final concentration, where only cells which expressed the neomycin gene and overexpressed the dhfr gene were able to grow. After growth for 2-3 weeks, the cells were cloned (0.5 cells/well) and the clones were investigated for SGLT expression in radioactivity uptake tests.
(§3) The uptake of ^14C-α-methyl-D-glucopyranoside (AMG) in, for example, Xenopus oocytes injected with the corresponding cRNA has been described in principle (for example Wen-Sen Lee et al. (1994), J. Biol. Chem. 269, 12032-12039; Guofeng You et al. (1995), J. Biol. Chem. 270, 29365-29371).
(§4) A 96-well cell-based assay was developed and adapted to HTS requirements:
(§5) BHK cells (transfected with SGLT1 or SGLT2) were seeded into 96-well microtitre plates (Cultureplates, Perkin Elmer). After at least 24 h, medium was removed, and the cell layer was washed with assay buffer (140 mM NaCl, 2 mM KCl, 1 mM CaCl2, 1 mM MgCl2, 10 mM HEPES, 5 mM Tris, adjusted to pH 7.4 using 1 M KOH). After addition of 40 μl of assay buffer, 50 μl of AMG (50 μM for SGLT1 and 2 mM for SGLT2) in the presence or absence of compounds, the cells were incubated in a total volume of 100 μl at 37° C. for 90 min. Supernatant was removed by suction and discarded. Cells were washed and lysed by addition of 50 μl of water. After 10 min at room temperature, 200 μl of Micrsoscint 40 (Perkin Elmer) were added. The radioactivity was counted in a Topcount microplate scintillation counter (Perkin Elmer). The non-specific uptake was determined in sodium-free assay buffer (266 mM sucrose, 2 mM KCl, 1 mM CaCl2, 1 mM MgCl2, 10 mM HEPES, 5 mM Tris, adjusted to pH 7.4 using 1 M KOH).

Another series addresses T2, SGLT1 (Homo sapiens, UniProt P13866).
T2 construct: expressed in transfected cells
T2 sequence (P13866 1-664): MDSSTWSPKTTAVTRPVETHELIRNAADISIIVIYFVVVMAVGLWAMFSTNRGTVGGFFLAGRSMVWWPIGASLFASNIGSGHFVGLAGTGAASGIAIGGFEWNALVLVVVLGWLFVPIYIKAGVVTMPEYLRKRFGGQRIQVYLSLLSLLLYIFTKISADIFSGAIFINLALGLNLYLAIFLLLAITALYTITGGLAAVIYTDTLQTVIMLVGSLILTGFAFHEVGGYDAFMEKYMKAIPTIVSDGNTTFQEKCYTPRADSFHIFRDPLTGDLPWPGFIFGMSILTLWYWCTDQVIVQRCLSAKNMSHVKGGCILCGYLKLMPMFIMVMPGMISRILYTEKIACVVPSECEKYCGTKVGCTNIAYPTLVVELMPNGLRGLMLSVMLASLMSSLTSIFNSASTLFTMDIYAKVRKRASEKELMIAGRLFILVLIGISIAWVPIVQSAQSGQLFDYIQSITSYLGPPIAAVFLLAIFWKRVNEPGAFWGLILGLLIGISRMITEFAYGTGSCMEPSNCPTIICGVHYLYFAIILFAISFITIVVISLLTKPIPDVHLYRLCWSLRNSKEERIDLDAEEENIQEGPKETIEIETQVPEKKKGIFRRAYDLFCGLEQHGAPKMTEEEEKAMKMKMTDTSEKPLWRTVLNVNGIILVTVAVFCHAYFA
In words: 14C-AMG uptake in BHK cells transfected with SGLT1 (96-well cell-based assay). To be noted: 50 μM AMG, 37° C., 90 min.
From the text: as §1
To construct the SGLT1 expression vector (KL225), the SLC5A1 gene (homologous to NM_000343) was amplified from a cDNA library using standard PCR technology and cloned over NheI/XhoI sites into the pcDNA3.1 expression vector (Invitrogen) containing neomycin as a selection marker. In this vector, transcription uses the enhancer/promoter of human cytomegalovirus.
as §2, with “KL225” for “KL224”
as §3, §4, §5

In the case of `COc1cc(C)c(-c2nc3ccc(F)cc3n2Cc2c(C)cccc2C)c(OCC(N)=O)c1` [Compound A1, 2-{2-[1-(2,6-dimethylbenzyl)-6-fluoro-1H-benzimidazol-2-yl]-5-methoxy-3-methylphenoxy}acetamide], the melting point lay in the range of 173 to 174 °C. Besides, the IC50 against SGLT2 lay in the range of 0.01 to 1 µM. Further, the IC50 at SGLT1 was more than 10 µM.

As for `COc1cc(C)c(-c2nc3ccc(F)c(F)c3n2Cc2c(C)cccc2C)c(OCC(N)=O)c1` [Compound A30, 2-{2-[1-(2,6-Dimethylbenzyl)-6,7-difluoro-1H-benzimidazol-2-yl]-5-methoxy-3-methylphenoxy}acetamide], the half-inhibitory concentration (IC50) fell in the range of 0.01 to 1 µM at SGLT2 and 1 to 10 µM against SGLT1.

Turning to `Cc1cccc(C)c1Cn1c(-c2ccccc2OC(CO)C(N)=O)nc2ccccc21` (stereo not shown) [Compound A27, 2-{2-[1-(2,6-Dimethylbenzyl)-1H-benzimidazol-2-yl]phenoxy}-3-hydroxypropionamide], the IC50 against SGLT2 and on SGLT1 was more than 10 µM throughout.

For the compound `Cc1cccc(C)c1C(=O)n1c(-c2ccccc2OCC(N)=O)nc2ccccc21` [Compound A25, 2-{2-[1-(2,6-Dimethylbenzoyl)-1H-benzimidazol-2-yl]phenoxy}acetamide], the half-maximal inhibitory concentration (IC50) on SGLT2 and against SGLT1 was more than 10 µM in each case.

Turning to `Cc1cccc(C)c1Cn1c(-c2ccc(F)cc2OCC(N)=O)nc2ccccc21` [Compound A17, 2-{2-[1-(2,6-Dimethylbenzyl)-1H-benzimidazol-2-yl]-5-fluorophenoxy}acetamide], the IC50 is 0.01 to 1 µM against SGLT2 and more than 10 µM on SGLT1.

Take `Cc1ccc(-c2nc3ccccc3n2Cc2c(C)cccc2C)c(OCC(N)=O)c1` [Compound A14, 2-{2-[1-(2,6-Dimethylbenzyl)-1H-benzimidazol-2-yl]-5-methylphenoxy}acetamide]: the results for the IC50 against SGLT2 and against SGLT1 were 0.01 to 1 µM and more than 10 µM, respectively.

For `COc1cc(C)c(-c2nc3cc(F)c(F)cc3n2Cc2c(C)cccc2C)c(OCC(N)=O)c1` [Compound A28, 2-{2-[1-(2,6-Dimethylbenzyl)-5,6-difluoro-1H-benzimidazol-2-yl]-5-methoxy-3-methylphenoxy}acetamide], the IC50 was 1 to 10 µM at SGLT2 and more than 10 µM against SGLT1.

With `NC(=O)COc1ccccc1-c1nc2cc(Cl)ccc2n1Cc1c(Cl)cccc1Cl` [Compound A18, 2-{2-[5-Chloro-1-(2,6-dichlorobenzyl)-1H-benzimidazol-2-yl]phenoxy}acetamide], the half-inhibitory concentration (IC50) at SGLT2 and against SGLT1 was more than 10 µM throughout.

Take `NC(=O)COc1ccccc1-c1nc2ccccc2n1Cc1c(F)cccc1F` [Compound A9, 2-{2-[1-(2,6-Difluorobenzyl)-1H-benzimidazol-2-yl]phenoxy}acetamide]: the IC50 was 1 to 10 µM on SGLT2 and more than 10 µM at SGLT1.

For `NC(=O)COc1ccccc1-c1nc2ccccc2n1Cc1c(F)cccc1Cl` [Compound A20, 2-{2-[1-(2-Chloro-6-fluorobenzyl)-1H-benzimidazol-2-yl]phenoxy}acetamide], the results for the IC50 on SGLT2 and on SGLT1 were 1 to 10 µM and more than 10 µM, respectively.

With `COc1cccc(OCC(N)=O)c1-c1nc2ccccc2n1Cc1c(C)cccc1C` [Compound A15, 2-{2-[1-(2,6-Dimethylbenzyl)-1H-benzimidazol-2-yl]-3-methoxyphenoxy}acetamide], the half-inhibitory concentration (IC50) on SGLT2 is 0.01 to 1 µM; against SGLT1 it was more than 10 µM.

As to `Cc1cccc(C)c1Cn1c(-c2ccccc2OCC(N)=O)nc2cccc(Br)c21` [Compound A23, 2-{2-[7-Bromo-1-(2,6-dimethylbenzyl)-1H-benzimidazol-2-yl]phenoxy}acetamide], the IC50 against SGLT2 and at SGLT1 was more than 10 µM each time.
